Laboratory results taken from paper PMC10291553, “Exploring Structure–Activity Relationships in Photodynamic Therapy Anticancer Agents Based on Ir(III)-COUPY Conjugates” (Journal of Medicinal Chemistry, 2023).
Read-outs that look alike come from different tables or passages of the source.

Key:
[1] = test system: A375; test: Photo- and cytotoxic activity determination (MTT), A375 cells; assay type: cell-based, human; conditions: normoxia; for IC50: 48 h drug-free medium; for A375 PI (phototherapeutic index), IC50 dark/IC50 irradiated: 520 nm, dark tested up to 100 μM
Source text: (§1) Having shown that the Ir(III)-COUPY conjugates can sensitize both type I and II ROS through spectroscopic techniques and readily internalize into living cells, their photocytotoxicity was screened in various cancer cell lines. This screening included two representative melanoma cell lines (human A375 and […] human SK-MEL-28) and cancer cells with resistance to the clinical drug cisplatin. For the latter, both sensitive and cisplatin-resistant ovarian cancer cells (A2780 and A2780cis) as well as HeLa cells, which also show a degree of chemoresistance to the platinum anticancer drug in vitro,[54] were used. For the determination of dark and light cytotoxicity, dose–response curves were assayed from both conditions to provide the correspondent IC50 values, which correspond to the concentration needed for inhibition of cell growth by 50%. Phototherapeutic index (PI) was calculated as the ratio of dark to light IC50 value for each compound.
(§2) A375, HeLa, and SK-MEL-28 cells were cultured in Dulbecco’s modified Eagle medium (DMEM) supplemented with 10% FBS, L-glutamine, and 1% penicillin–streptomycin. A2780 and A2780cis cells were grown in RPMI-1640 cell medium supplemented with 10% fetal bovine serum (FBS) and 2 mM L-glutamine. Acquired resistance to cisplatin in the A2780cis cell line was maintained by adding cisplatin 1 μM to culture medium every second passage. Cells were cultured in a humidified incubator at 310 K with 5% CO2 atmosphere and subcultured two or three times a week with appropriate densities and were confirmed to be mycoplasma-free using a standard Hoechst DNA staining method.
(§3) A2780, A2780cis, HeLa, A375, and SK-MEL-28 cells were maintained at logarithmic growth-phase and cultured in 96-well plates at a density of 5000 cells/well in complete medium for 24 h at 310 K, 5% CO2 in a humidified incubator. For hypoxia experiments, a hypoxia condition was set up by Tissue Culture Service at University of Murcia using nitrogen (N2) to displace O2 down to a minimum of 2% in a Forma Steri-Cycle i160 incubator (Thermo Fisher Scientific). Serial dilutions of the compounds were added at the final concentrations in the range of 0–100 μM in a final volume of 100 μL per well. A light-based treatment schedule was performed as follows: 1 h incubation with the compounds in the dark, followed by 1 h incubation under irradiation conditions by placing the Photoreactor EXPO-LED from Luzchem (Canada) fitted with green lamps (final light intensity applied of 1.5 mW/cm^2 at λmax = 520 nm) inside the CO2 incubator. All the cell culture plates subjected to light irradiation included untreated controls to verify that cell viability was not affected by light. Then, treatment-containing media was removed, and fresh media was added for a 48 h cell recovery period; the temperature throughout the experiment remained at 310 K. Dark control samples were placed in the same dark conditions and then kept incubated for 1 h in the dark in the humidified CO2 incubator. Medium was then aspirated by suction, cells were loaded with 50 μL of MTT solution (1 mg/mL) for additional 4 h and then removed, and 50 μL of DMSO was added to solubilize the purple formazan crystals formed in active cells. The absorbance was measured at 570 nm using a microplate reader (FLUOstar Omega), and the IC50 values were calculated based on the inhibitory rate curves using the following equation [drawing 4] 4 where I represents the percentage inhibition of viability observed, Imax is the maximal inhibitory effect, IC50 is the concentration that inhibits 50% of maximal growth, C is the concentration of the treatment, and n is the slope of the semi-logarithmic dose–response sigmoidal curves. The non-linear fitting was performed using SigmaPlot 14.0 software. All experiments were performed in three independent studies with n = 3 replicates per concentration level. For a detailed phototoxicity procedure, ref ([43]) includes technical explanations.

[2] = test system: A2780; test: Photo- and cytotoxic activity determination (MTT), A2780 cells; assay type: cell-based; conditions: normoxia; for A2780 PI (phototherapeutic index), IC50 dark/IC50 irradiated: dark tested up to 100 μM
Source text: as §1, §2, §3

[3] = test system: HeLa; test: Photo- and cytotoxic activity determination (MTT), HeLa cells; assay type: cell-based; conditions: normoxia; for HeLa PI (phototherapeutic index), IC50 dark/IC50 irradiated: dark tested up to 100 μM
Source text: as §1, §2, §3

[4] = test system: A2780cis cells; test: Photo- and cytotoxic activity determination (MTT), A2780cis cells, normoxia or hypoxia; assay type: cell-based; conditions: for Hypoxia PI (phototherapeutic index) / Normoxia PI (phototherapeutic index): dark tested up to 250 μM; for A2780cis PI (phototherapeutic index), IC50 dark/IC50 irradiated: dark tested up to 100 μM
Source text: as §1, §2
as §3, with “Serial dilutions of the compounds were added at the final concentrations in the range of 0–100 μM in a final volume of 100 μL per well.” left out

[5] = Homo sapiens, A-375, 1 h incubation + 1 h green light 520 nm, 1.5 mW cm^–2, read-out: A375 light IC50
[6] = Homo sapiens, A-375, kept in the dark, 2 h treatment, read-out: A375 dark IC50
[7] = Homo sapiens, A2780, 1 h incubation + 1 h green light 520 nm, 1.5 mW cm^–2, 48 h drug-free medium, read-out: A2780 light IC50
[8] = Homo sapiens, A2780, kept in the dark, 2 h treatment, 48 h drug-free medium, read-out: A2780 dark IC50
[9] = Homo sapiens, HeLa, 1 h incubation + 1 h green light 520 nm, 1.5 mW cm^–2, 48 h drug-free medium, read-out: HeLa light IC50
[10] = Homo sapiens, HeLa, kept in the dark, 2 h treatment, 48 h drug-free medium, read-out: HeLa dark IC50
[11] = 250 μM, A2780cis, 2 h incubation in the dark, 48 h drug-free recovery, hypoxia, read-out: Partial inhibition (% of cell growth inhibition with respect to untreated controls), Hypoxia
[12] = 250 μM, A2780cis, 2 h incubation in the dark, 48 h drug-free recovery, normoxia, read-out: Partial inhibition (% of cell growth inhibition with respect to untreated controls), Normoxia
[13] = A2780cis, hypoxia 2% O2, 520 nm
[14] = A2780cis, hypoxia 2% O2, dark, tested up to 250 μM, read-out: Hypoxia Dark IC50
[15] = A2780cis, hypoxia, 520 nm, read-out: A2780cis Light 520 nm IC50 (microM) Hypoxia
[16] = A2780cis, hypoxia, dark, read-out: A2780cis Dark IC50 (microM) Hypoxia
[17] = A2780cis, normoxia 21% O2, 520 nm
[18] = A2780cis, normoxia 21% O2, dark, tested up to 250 μM, read-out: Normoxia Dark IC50
[19] = A2780cis, normoxia, 1 h incubation + 1 h green light 520 nm, 1.5 mW cm^–2, 48 h drug-free medium, read-out: A2780cis light IC50
[20] = A2780cis, normoxia, dark, up to 250 microM, read-out: A2780cis Dark IC50 (microM) Normoxia
[21] = A2780cis, normoxia, kept in the dark, tested up to 100 μM, 2 h treatment, 48 h drug-free medium, read-out: A2780cis dark IC50

SMILES | IC50 [1, 5] [µM] | IC50 [1, 6] [µM] | A375 PI (phototherapeutic index), IC50 dark/IC50 irradiated [1] | IC50 [2, 7] [µM] | IC50 [2, 8] [µM] | A2780 PI (phototherapeutic index), IC50 dark/IC50 irradiated ([2]; 520 nm) | IC50 [3, 9] [µM] | IC50 [3, 10] [µM] | HeLa PI (phototherapeutic index), IC50 dark/IC50 irradiated ([3]; 520 nm) | inhibition at 250 µM [4, 11] [%] | inhibition at 250 µM [4, 12] [%] | Hypoxia PI (phototherapeutic index) [4, 13] | IC50 [4, 14] [µM] | IC50 [4, 15] [µM] | IC50 [4, 16] [µM] | Normoxia PI (phototherapeutic index) [4, 17] | IC50 [4, 18] [µM] | IC50 [4, 19] [µM] | IC50 [4, 20] [µM] | A2780cis PI (phototherapeutic index), IC50 dark/IC50 irradiated ([4]; normoxia, 520 nm) | other results
CCN(CC)c1ccc2c(c1)O/C(=C(/C#N)c1cc[n+](C)cc1)C=C2C [1a] | 1.1 ± 0.1 | > 100 | > 89 | 5.2 ± 0.5 | > 100 | > 19 | 5.8 ± 0.4 | > 100 | > 17 | 2.1 ± 0.4 | 3.5 ± 0.9 | > 100.0 | > 250 | 2.5 ± 0.2 | > 250 | > 119.1 | > 250 | 2.1 ± 0.2 | > 250 | > 48 | IC50 [4, 21]: > 100 µM
CC1=C/C(=C(\C#N)c2cc[n+](C)cc2)Oc2ccccc21 [1b] | 10 ± 2 | > 100 | > 10 | > 100 | > 100 |  | > 100 | > 100 |  | 4.5 ± 0.6 | 24 ± 3 |  | > 250 | > 250 | > 250 |  | > 250 |  | > 250 |  | IC50 ([2]; Homo sapiens, A2780, 520 nm, read-out: A2780 Light 520 nm IC50 (microM) Normoxia): > 100 µM; IC50 ([2]; Homo sapiens, A2780, dark, read-out: A2780 Dark IC50 (microM) Normoxia): > 100 µM; IC50 ([3]; Homo sapiens, HeLa, 520 nm, read-out: HeLa Light 520 nm IC50 (microM) Normoxia): > 100 µM; IC50 ([3]; Homo sapiens, HeLa, dark, read-out: HeLa Dark IC50 (microM) Normoxia): > 100 µM; IC50 ([4]; A2780cis, hypoxia 2% O2, 1 h incubation + 1 h green light 520 nm, 48 h drug-free, read-out: Hypoxia 520 nm IC50): > 250 µM; IC50 ([4]; A2780cis, normoxia 21% O2, 1 h incubation + 1 h green light 520 nm, 48 h drug-free, read-out: Normoxia 520 nm IC50): > 250 µM; IC50 ([4]; A2780cis, normoxia, 520 nm, read-out: A2780cis Light 520 nm IC50 (microM) Normoxia): > 250 µM
CC1=C/C(=C(\C#N)c2cc[n+](C)cc2)Oc2c1cc1c3c2CCCN3CCC1 [1c] | 0.31 ± 0.02 | 9.9 ± 0.5 | 32 | 0.09 ± 0.01 | 5.1 ± 0.9 | 57 | 1.1 ± 0.8 | 26 ± 4 | 24 | 100 | 100 | 36.4 |  | 0.6 ± 0.1 | 20 ± 2 | 100.0 |  | 0.15 ± 0.04 |  | 100 | IC50 [4, 21]: 15 ± 2 µM
CCCCn1c2[n+](c3cc(C(=O)OC)ccc31)[Ir-3]13([c]4ccccc4-c4[nH]c5ccccc5[n+]41)([c]1ccccc1-c1[nH]c4ccccc4[n+]13)[n+]1c-2ccc2ccccc21 [2a] |  |  | > 48 |  |  | > 25 |  |  | > 1.3 |  |  | > 22.7 | > 250 |  |  | > 71.4 | > 250 |  |  | > 29 | IC50 ([1]; 1 h incubation + 1 h green light 520 nm, 1.5 mW cm^–2, read-out: A375 light IC50): 2.1 ± 0.3 µM; IC50 ([1]; kept in the dark, 2 h treatment, read-out: A375 dark IC50): > 100 µM; IC50 ([2]; 1 h incubation + 1 h green light 520 nm, 1.5 mW cm^–2, 48 h drug-free medium, read-out: A2780 light IC50): 4 ± 1 µM; IC50 ([2]; kept in the dark, 2 h treatment, 48 h drug-free medium, read-out: A2780 dark IC50): > 100 µM; IC50 ([3]; 1 h incubation + 1 h green light 520 nm, 1.5 mW cm^–2, 48 h drug-free medium, read-out: HeLa light IC50): 75 ± 6 µM; IC50 ([3]; kept in the dark, 2 h treatment, 48 h drug-free medium, read-out: HeLa dark IC50): > 100 µM; Partial inhibition (% of cell growth inhibition with respect to untreated controls), Hypoxia ([4]; 250 μM, A2780cis, 2 h incubation in the dark, 48 h drug-free recovery, hypoxia): 56 ± 6%; Partial inhibition (% of cell growth inhibition with respect to untreated controls), Normoxia ([4]; 250 μM, A2780cis, 2 h incubation in the dark, 48 h drug-free recovery, normoxia): 62 ± 4%; IC50 ([4]; hypoxia, 520 nm, read-out: A2780cis Light 520 nm IC50 (microM) Hypoxia): 11 ± 2 µM; IC50 ([4]; hypoxia, dark, read-out: A2780cis Dark IC50 (microM) Hypoxia): > 250 µM; IC50 ([4]; normoxia, 1 h incubation + 1 h green light 520 nm, 1.5 mW cm^–2, 48 h drug-free medium, read-out: A2780cis light IC50): 3.5 ± 0.4 µM; IC50 ([4]; normoxia, dark, up to 250 microM, read-out: A2780cis Dark IC50 (microM) Normoxia): > 250 µM; IC50 ([4]; normoxia, kept in the dark, tested up to 100 μM, 2 h treatment, 48 h drug-free medium, read-out: A2780cis dark IC50): > 100 µM
